Experimental data as given in US9745325B2, “Fused heterocyclic compound” (Takeda Pharmaceutical Company Limited, priority 2014, dated 2017).
Structures can show the parent of a compound that is named as a salt.

Columns and labels:
[1] = biological target: T1, CDC2L6/CycC (CDK19) (Homo sapiens, UniProt Q9BWU1); test: CDK19 inhibitory activity (Kinase Tracer-236 / Eu-anti-GST fluorescence assay); format: binding; parameters: Percent inhibition of CDK19 activity (%): concentration or dose not given beside the values; conditions: test compound concentration given as '1 1.1.1\4' [sic]
T1 construct: purchased Carna Biosciences Inc
Summary of the method: (§1)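 Tracer-displacement TR-FRET binding assay: compound with kinase, Eu-cryptate anti-GST antibody and 60 nM Kinase Tracer-236 (pre-dilution level), 1 h at room temperature; ex 320 nm, em 615/665 nm. Percent inhibition is relative to no-compound control and a 10 μM control-compound blank.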

[2] = system: human multiple myeloma RPMI8226 cells; test: Inhibitory activity against human multiple myeloma RPMI8226 cell growth (CellTiter-Glo); format: cell-based; conditions: Homo sapiens, RPMI-8226, 192 h, 1 μM test compound, cultured for 8 days; read-out: Percent inhibition of RPMI8226 cell growth (%)
Summary of the method: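 RPMI8226 cells (300/well) cultured 1 day at 37 °C, 5% CO2, then given compound at 1 μM for 8 days. ATP luminescence (CellTiter-Glo) read; percent inhibition relative to 0.1% DMSO wells.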

[3] = biological target: T2, CDK8/CycC (Homo sapiens, UniProt P49336); test: CDK8 inhibitory activity (Kinase Tracer-236 / Eu-anti-GST fluorescence assay); format: binding; parameters: Percent inhibition of CDK8 activity (%): concentration or dose not given beside the values; conditions: test compound concentration given as '1 1.1.1\4' [sic]
T2 construct: purchased Carna Biosciences
Summary of the method: as §1

T1 sequence (Q9BWU1 whole entry): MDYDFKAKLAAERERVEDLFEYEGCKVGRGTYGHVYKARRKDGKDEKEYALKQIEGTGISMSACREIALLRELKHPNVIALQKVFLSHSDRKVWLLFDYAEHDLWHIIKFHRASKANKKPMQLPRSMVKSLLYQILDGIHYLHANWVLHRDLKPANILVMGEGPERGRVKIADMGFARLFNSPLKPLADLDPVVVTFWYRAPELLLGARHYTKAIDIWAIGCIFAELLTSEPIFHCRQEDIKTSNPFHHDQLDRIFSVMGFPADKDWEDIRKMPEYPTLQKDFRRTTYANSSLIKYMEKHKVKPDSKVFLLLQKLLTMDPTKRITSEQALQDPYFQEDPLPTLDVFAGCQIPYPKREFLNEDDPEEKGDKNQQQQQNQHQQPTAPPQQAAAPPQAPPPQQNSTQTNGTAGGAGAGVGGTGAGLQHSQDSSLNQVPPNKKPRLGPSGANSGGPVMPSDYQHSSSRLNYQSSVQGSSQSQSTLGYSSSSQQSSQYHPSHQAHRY
T1 sequence (P24863 whole entry partner): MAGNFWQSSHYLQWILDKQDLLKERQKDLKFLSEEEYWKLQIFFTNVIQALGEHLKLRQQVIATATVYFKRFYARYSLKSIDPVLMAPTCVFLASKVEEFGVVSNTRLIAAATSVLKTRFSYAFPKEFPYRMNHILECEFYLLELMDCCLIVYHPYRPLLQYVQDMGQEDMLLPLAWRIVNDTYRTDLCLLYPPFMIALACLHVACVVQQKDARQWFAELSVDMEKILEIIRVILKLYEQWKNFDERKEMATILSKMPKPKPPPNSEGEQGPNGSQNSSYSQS
T2 sequence (P49336 whole entry): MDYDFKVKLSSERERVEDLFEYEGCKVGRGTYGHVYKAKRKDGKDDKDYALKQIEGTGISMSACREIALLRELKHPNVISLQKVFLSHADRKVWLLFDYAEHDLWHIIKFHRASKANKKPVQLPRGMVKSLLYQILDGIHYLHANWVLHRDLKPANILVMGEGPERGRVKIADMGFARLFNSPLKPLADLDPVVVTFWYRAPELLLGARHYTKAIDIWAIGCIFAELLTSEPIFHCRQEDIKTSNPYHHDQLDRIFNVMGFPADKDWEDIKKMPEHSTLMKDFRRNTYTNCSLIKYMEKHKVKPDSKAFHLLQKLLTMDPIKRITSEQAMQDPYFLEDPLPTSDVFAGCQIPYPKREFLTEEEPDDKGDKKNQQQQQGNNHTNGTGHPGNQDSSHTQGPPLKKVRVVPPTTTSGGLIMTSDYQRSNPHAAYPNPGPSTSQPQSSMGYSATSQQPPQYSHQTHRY
T2 sequence (P24863 whole entry partner): as the sequence (P24863 whole entry partner) above

Compound | Percent inhibition of CDK19 activity (%) [1] [%] | inhibition at 1 µM [2] [%] | Percent inhibition of CDK8 activity (%) [3] [%]
COCCNC(=O)c1ccc(Oc2sc(C(N)=O)c3c2-c2sncc2CC3)c(C)n1 [Example 25, 8-((6-((2-Methoxyethyl)carbamoyl)-2-methylpyridin-3-yl)oxy)-4,5-dihydrothieno[3,4-g][1,2] benzothiazole-6-carboxamide] | 100 | 60 | 104
CCOCCOc1sc(C(N)=O)c2c1-c1sncc1CC2 [Example 95, 8-(2-Ethoxyethoxy)-4,5-dihydrothieno [3,4-g][1,2]benzothiazole-6-carboxamide] | 89 | 69 | 97
CNC(=O)c1ccc(Oc2sc(C(N)=O)c3c2-c2sncc2CC3)cn1 [Example 17, 8-((6-(Methylcarbamoyl)pyridin-3-yl)oxy)-4,5-dihydrothieno[3,4-g][1,2]benzothiazole-6-carboxamide] | 101 | 66 | 102
CC1(C(=O)Nc2ccc(Oc3sc(C(N)=O)c4c3-c3sncc3CC4)cn2)COC1 [Example 20, 8-((6-(((3-Methyloxetan-3-yl)carbonyl)amino)pyridin-3-yl)oxy)-4,5-dihydrothieno[3,4-g][1,2]benzothiazole-6-carboxamide] | 99 | 66 | 102
CCCS(=O)(=O)c1ccc(Oc2sc(C(N)=O)c3c2-c2sncc2CC3)cc1 [Example 5, 8-(4-(Propylsulfonyl)phenoxy)-4,5-dihydrothieno[3,4-g][1,2]benzothiazole-6-carboxamide] | 100 | 63 | 99
Cc1ncccc1Oc1sc(C(N)=O)c2c1-c1sncc1CC2 [Example 7, 8-((2-Methylpyridin-3-yl)oxy)-4,5-dihydrothieno[3,4-g][1,2]benzothiazole-6-carboxamide] | 101 | 69 | 100
Cn1cc(Oc2sc(C(N)=O)c3c2-c2sncc2CC3)cn1 [Example 96, 8-((1-Methyl-1H-pyrazol-4-yl)oxy)-4,5-dihydrothieno[3,4-g][1,2] benzothiazole-6-carboxamide] | 100 | 69 | 110
CON(C)C(=O)c1sc(Oc2cccnc2C)c2c1CCc1cnsc1-2 [Example 34, N-Methoxy-N-methyl-8-((2-methylpyridin-3-yl)oxy)-4,5-dihydrothieno[3,4-g][1,2]benzothiazole-6-carboxamide] | 98 | 50 | 100
NC(=O)c1sc(Oc2ccc(C(=O)O)nc2)c2c1CCc1cnsc1-2 [Example 12, 5-((6-Carbamoyl-4,5-dihydrothieno[3,4-g][1,2]benzothiazol-8-yl)oxy)pyridine-2-carboxylic acid] | 97 | 65 | 100
NC(=O)c1sc(Oc2ccc(C(=O)N3CCOCC3)nc2)c2c1CCc1cnsc1-2 [Example 19, 8-((6-(Morpholin-4-ylcarbonyl)pyridin-3-yl)oxy)-4,5-dihydrothieno[3,4-g][1,2]benzothiazole-6-carboxamide] | 93 | 53 | 98
NC(=O)c1sc(Oc2ccc(C(=O)NC3CC3)nc2)c2c1CCc1cnsc1-2 [Example 118, 8-((6-(Cyclopropylcarbamoyl)pyridin-3-yl)oxy)-4,5-dihydrothieno[3,4-g][1,2] benzothiazole-6-carboxamide] | 100 | 64 | 104
CN(CCO)C(=O)c1ccc(Oc2sc(C(N)=O)c3c2-c2sncc2CC3)cn1 [Example 105] | 96 | 54 | 99
Cc1ncccc1Oc1sc(C(=O)NOCc2ccccc2)c2c1-c1sncc1CC2 [Example 58, N-(Benzyloxy)-8-((2-methylpyridin-3-yl)oxy)-4,5-dihydrothieno[3,4-g][1,2] benzothiazole-6-carboxamide] | 101 | 49 | 100
NC(=O)c1sc(Oc2ccc(NC(=O)C3(O)CC3)nc2)c2c1CCc1cnsc1-2 [Example 21, 8-((6-(((1-Hydroxycyclopropyl)carbonyl)amino)pyridin-3-yl)oxy)-4,5-dihydrothieno[3,4-g][1,2]benzothiazole-6-carboxamide] | 100 | 70 | 106
NC(=O)c1sc(Oc2ccc(C(=O)N3CCCCC3)nc2)c2c1CCc1cnsc1-2 [Example 106, 8-((6-(Piperidin-1-ylcarbonyl)pyridin-3-yl)oxy)-4,5-dihydrothieno[3,4-g][1,2] benzothiazole-6-carboxamide] | 95 | 58 | 97
CS(=O)(=O)c1ccc(Oc2sc(C(N)=O)c3c2-c2sncc2CC3)cc1 [Example 53, 8-(4-(Methylsulfonyl)phenoxy)-4,5-dihydrothieno[3,4-g][1,2]benzothiazole-6-carboxamide] | 99 | 61 | 100
NC(=O)c1sc(Oc2ccc(Br)cc2)c2c1CCc1cnsc1-2 [Example 1, 8-(4-Bromophenoxy)-4,5-dihydrothieno[3,4-g][1,2]benzothiazole-6-carboxamide] | 103 | 56 | 100
NC(=O)c1sc(Oc2cncc(Br)c2)c2c1CCc1cnsc1-2 [Example 92, 8-((5-Bromopyridin-3-yl)oxy)-4,5-dihydrothieno[3,4-g][1,2]benzothiazole-6-carboxamide] | 95 | 58 | 89
CCOCCNC(=O)c1ccc(Oc2sc(C(N)=O)c3c2-c2sncc2CC3)c(C)n1 [Example 119, 8-((6-((2-Ethoxyethyl)carbamoyl)-2-methylpyridin-3-yl)oxy)-4,5-dihydrothieno[3,4-g][1,2]benzothiazole-6-carboxamide] | 101 | 68 | 108
COCC(=O)Nc1ccc(Oc2sc(C(N)=O)c3c2-c2sncc2CC3)cn1 [Example 97, 8-((6-((Methoxyacetyl)amino)pyridin-3-yl)oxy)-4,5-dihydrothieno[3,4-g][1,2] benzothiazole-6-carboxamide] | 99 | 55 | 103
NC(=O)c1sc(Oc2ccc(C(=O)N3CCC3)nc2)c2c1CCc1cnsc1-2 [Example 104] | 102 | 66 | 101
CNc1ccc(Oc2sc(C(N)=O)c3c2-c2sncc2CC3)c(C)n1 [Example 27, 8-((2-Methyl-6-(methylamino)pyridin-3-yl)oxy)-4,5-dihydrothieno[3,4-g][1,2]benzothiazole-6-carboxamide monohydrochloride] | 102 | 81 | 102
NC(=O)c1sc(Oc2ccc(S(F)(F)(F)(F)F)cc2)c2c1CCc1cnsc1-2 [Example 89] | 99 | 54 | 102
Cc1ncccc1Oc1sc(C(=O)NO)c2c1-c1sncc1CC2 [Example 38, N-Hydroxy-8-((2-methylpyridin-3-yl)oxy)-4,5-dihydrothieno[3,4-g][1,2]benzothiazole-6-carboxamide] | 100 | 67 | 97
CN(C)C(=O)c1ccc(Oc2sc(C(N)=O)c3c2-c2sncc2CC3)cc1 [Example 4, 8-(4-(Dimethylcarbamoyl)phenoxy)-4,5-dihydrothieno[3,4-g][1,2] benzothiazole-6-carboxamide] | 98 | 61 | 97
